# Results reported in patent US8293537B2, “Systems and methods for hemoglobin analysis” (priority 2010, dated 2012).
# Where “and” joins values, the source holds several entries; their conditions need not be identical. Equal entries are not always repeated.
# Key:
# Format in all cases: biochemical
# peroxidase = experiment: Peroxidase assay in saliva (Amplex Red); details: 500 ppm; pooled or unpooled saliva; 30 minutes; FIGS. 26-29
# Procedure: To determine the effect of various GRAS compounds as inhibitors of peroxidase activity, a standard assay using Amplex® Red (Life Technologies), which releases a fluorescent oxidation product.
# The test compounds, such as GRAS materials or cocktails of same, were prepared at a concentration of 500 ppm in distilled water. For the assay, 50 μl samples of test compounds were mixed with 20-30 μl of saliva (either “pooled” or “unpooled”) prior to the addition of Amplex® Red. […] Reactions were allowed to run for 30 minutes during these assays.
# Lysozyme = biological target: T1, Lysozyme (Homo sapiens, UniProt P61626); experiment: Lysozyme inhibition saliva screening (fluorescein-labeled Micrococcus lysodeikticus); details: 100% saliva samples (data not shown)
# T1 sequence (P61626 19-148): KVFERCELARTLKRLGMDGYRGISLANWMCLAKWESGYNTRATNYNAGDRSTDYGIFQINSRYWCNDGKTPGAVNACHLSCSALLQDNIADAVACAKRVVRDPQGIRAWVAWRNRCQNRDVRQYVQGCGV
# Text: Further details of these five compounds may also be seen in Table 5.
# α-amylase = biological target: T2, α-amylase (Homo sapiens, UniProt P0DUB6); experiment: α-Amylase inhibition saliva screening (chromogenic substrate, 405 nm); details: for Ave (absorbance at 405 nm) / individual reading (absorbance at 405 nm): saliva; for Ave (absorbance at 405 nm): 5,000 ppm; for individual reading (absorbance at 405 nm): test compound prepared at 5,000 ppm, 37° C.; for α-Amylase inhibition: 100% saliva samples, FIG. 11
# T2 sequence (P0DUB6 16-511): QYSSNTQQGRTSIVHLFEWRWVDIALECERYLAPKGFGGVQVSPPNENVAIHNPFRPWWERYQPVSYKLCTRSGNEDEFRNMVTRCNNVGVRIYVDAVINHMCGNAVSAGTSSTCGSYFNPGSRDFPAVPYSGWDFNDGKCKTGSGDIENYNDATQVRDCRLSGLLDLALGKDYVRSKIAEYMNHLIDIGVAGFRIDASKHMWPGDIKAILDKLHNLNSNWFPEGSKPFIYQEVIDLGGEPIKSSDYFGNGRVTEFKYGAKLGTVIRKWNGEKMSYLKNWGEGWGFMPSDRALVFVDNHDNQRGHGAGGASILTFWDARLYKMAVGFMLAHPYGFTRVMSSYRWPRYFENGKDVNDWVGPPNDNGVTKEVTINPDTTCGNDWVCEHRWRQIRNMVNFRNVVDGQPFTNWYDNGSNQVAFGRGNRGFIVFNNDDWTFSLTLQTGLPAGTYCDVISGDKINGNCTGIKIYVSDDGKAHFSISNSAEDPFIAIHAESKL
# Text: Further details of these five compounds may also be seen in Table 4.
compound,measurement,setting,value
"Cn1c(=O)c2c(ncn2C)n(C)c1=O [CDI-33, Caffeine]",peroxidase inhibition,peroxidase,showed significant peroxidase inhibition capabilities
"COc1ccc(O)c(C(C)(C)C)c1 [CDI-39, 3-tert--butyl-hydroxyanisole]",peroxidase inhibition,peroxidase,showed significant peroxidase inhibition capabilities
"O=C(O)c1ccccc1 [CDI-40, Benzoic acid]",Lysozyme inhibition,Lysozyme,shown to inhibit Lysozyme
Aluminum potassium sulfate dodecahydrate [CDI-42],Ave (absorbance at 405 nm),α-amylase; 0 min,0.92
same,individual reading (absorbance at 405 nm),α-amylase; 0 min,0.80 and 1.13 and 0.90 and 0.84
same,α-Amylase inhibition,α-amylase,shown to inhibit α-Amylase
same,individual reading (absorbance at 405 nm),α-amylase; 5 min,1.65 and 2.15 and 1.80 and 1.81
same,individual reading (absorbance at 405 nm),α-amylase; 15 min,2.37 and 2.38 and 2.25 and 2.17
same,peroxidase inhibition,peroxidase,showed significant peroxidase inhibition capabilities
Aluminum sulfate hydrate [CDI-34],Ave (absorbance at 405 nm),α-amylase; 0 min,0.40
same,individual reading (absorbance at 405 nm),"α-amylase; 0 min, sulfate hydrate",0.40 (2×) and 0.36 and 0.45
same,α-Amylase inhibition,α-amylase,shown to inhibit α-Amylase
same,Ave (absorbance at 405 nm),α-amylase; 5 min,0.50
same,individual reading (absorbance at 405 nm),"α-amylase; 5 min, sulfate hydrate",0.49 and 0.50 (2×) and 0.52
same,Ave (absorbance at 405 nm),α-amylase; 15 min,0.56
same,individual reading (absorbance at 405 nm),"α-amylase; 15 min, sulfate hydrate",0.53 and 0.61 and 0.54 and 0.56
